According to ChEMBL document CHEMBL3621096, “Discovery of Potent and Selective Inhibitors for ADAMTS-4 through DNA-Encoded Library Technology (ELT)” (ACS Med Chem Lett, 2015):

Molecular target: Disintegrin and metalloproteinase domain-containing protein 17 (Homo sapiens, UniProt P78536)
Assay: Inhibition of human recombinant TACE using Mca-PLAQAV-Dpa-RSSSR-NH2 as substrate preincubated for 15 mins measured every 30 secs for 30 mins by fluorescence assay

Sequence of Disintegrin and metalloproteinase domain-containing protein 17 (P78536 whole entry, the tested form may be a part): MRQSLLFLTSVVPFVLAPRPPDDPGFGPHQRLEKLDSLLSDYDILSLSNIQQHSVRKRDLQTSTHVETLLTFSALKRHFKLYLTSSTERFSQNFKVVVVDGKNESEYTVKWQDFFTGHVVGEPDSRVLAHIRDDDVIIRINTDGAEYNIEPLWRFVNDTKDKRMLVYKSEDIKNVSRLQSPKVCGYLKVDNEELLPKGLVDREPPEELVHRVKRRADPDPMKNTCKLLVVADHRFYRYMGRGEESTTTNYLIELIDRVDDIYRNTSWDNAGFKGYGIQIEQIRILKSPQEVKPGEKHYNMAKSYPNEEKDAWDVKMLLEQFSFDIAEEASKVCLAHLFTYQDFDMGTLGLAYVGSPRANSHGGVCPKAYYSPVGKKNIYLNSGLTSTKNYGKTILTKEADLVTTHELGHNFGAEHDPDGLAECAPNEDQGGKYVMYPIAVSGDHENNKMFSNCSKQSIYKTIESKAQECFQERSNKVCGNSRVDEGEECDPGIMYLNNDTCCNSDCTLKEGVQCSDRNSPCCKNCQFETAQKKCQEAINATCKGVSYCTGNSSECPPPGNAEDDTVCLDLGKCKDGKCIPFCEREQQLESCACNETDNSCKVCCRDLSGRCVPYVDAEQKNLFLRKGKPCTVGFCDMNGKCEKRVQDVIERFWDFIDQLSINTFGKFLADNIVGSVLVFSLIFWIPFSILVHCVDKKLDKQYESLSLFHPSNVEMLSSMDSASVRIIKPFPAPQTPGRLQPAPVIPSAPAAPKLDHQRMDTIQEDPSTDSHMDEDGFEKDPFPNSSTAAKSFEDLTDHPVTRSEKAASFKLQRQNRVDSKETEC

Row | SMILES | IC50
1 | CCN(C(=O)c1ccc(CNc2nc(NCCN3CCN(C)CC3)nc(N3CCc4cc(OC)c(OC)cc4C3)n2)cc1)c1cccc(C)c1 | > 10000 nM

Molecular target: T1, A disintegrin and metalloproteinase with thrombospondin motifs 5 (Homo sapiens, UniProt Q9UNA0)
T1 sequence (Q9UNA0 whole entry): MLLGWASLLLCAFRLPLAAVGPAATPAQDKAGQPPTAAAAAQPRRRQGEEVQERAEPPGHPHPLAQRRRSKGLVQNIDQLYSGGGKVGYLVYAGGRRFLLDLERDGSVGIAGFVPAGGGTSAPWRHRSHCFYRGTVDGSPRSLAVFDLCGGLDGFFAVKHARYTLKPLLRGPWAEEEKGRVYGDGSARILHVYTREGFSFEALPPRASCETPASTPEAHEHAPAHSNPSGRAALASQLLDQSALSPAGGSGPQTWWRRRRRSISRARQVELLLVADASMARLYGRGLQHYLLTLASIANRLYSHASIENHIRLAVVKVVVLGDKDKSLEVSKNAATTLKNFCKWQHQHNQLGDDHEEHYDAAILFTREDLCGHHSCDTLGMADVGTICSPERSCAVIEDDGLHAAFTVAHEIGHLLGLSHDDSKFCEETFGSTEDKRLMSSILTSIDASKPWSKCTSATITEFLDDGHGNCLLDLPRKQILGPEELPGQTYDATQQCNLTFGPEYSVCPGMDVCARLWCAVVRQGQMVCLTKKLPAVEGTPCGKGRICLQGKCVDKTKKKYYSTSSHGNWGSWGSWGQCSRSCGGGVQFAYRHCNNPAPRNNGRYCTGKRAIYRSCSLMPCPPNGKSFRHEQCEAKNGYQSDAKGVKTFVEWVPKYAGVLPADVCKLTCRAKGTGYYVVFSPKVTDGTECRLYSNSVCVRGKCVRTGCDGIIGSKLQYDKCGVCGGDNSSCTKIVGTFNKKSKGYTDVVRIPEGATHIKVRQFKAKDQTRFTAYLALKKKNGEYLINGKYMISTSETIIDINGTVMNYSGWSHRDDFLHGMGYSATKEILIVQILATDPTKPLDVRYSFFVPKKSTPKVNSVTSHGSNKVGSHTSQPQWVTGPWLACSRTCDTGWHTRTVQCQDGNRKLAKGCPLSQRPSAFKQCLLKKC
Assay: Inhibition of ADAMTS5 (unknown origin) using WAAG-3R as substrate preincubated for 15 mins followed by substrate addition measured every 30 secs for 1 hr

Row | SMILES | IC50
2 | CCN(C(=O)c1ccc(CNc2nc(NCCN3CCN(C)CC3)nc(N3CCc4cc(OC)c(OC)cc4C3)n2)cc1)c1cccc(C)c1 | > 10000 nM

Molecular target: T2, A disintegrin and metalloproteinase with thrombospondin motifs 13 (Homo sapiens, UniProt Q76LX8)
T2 sequence (Q76LX8 whole entry): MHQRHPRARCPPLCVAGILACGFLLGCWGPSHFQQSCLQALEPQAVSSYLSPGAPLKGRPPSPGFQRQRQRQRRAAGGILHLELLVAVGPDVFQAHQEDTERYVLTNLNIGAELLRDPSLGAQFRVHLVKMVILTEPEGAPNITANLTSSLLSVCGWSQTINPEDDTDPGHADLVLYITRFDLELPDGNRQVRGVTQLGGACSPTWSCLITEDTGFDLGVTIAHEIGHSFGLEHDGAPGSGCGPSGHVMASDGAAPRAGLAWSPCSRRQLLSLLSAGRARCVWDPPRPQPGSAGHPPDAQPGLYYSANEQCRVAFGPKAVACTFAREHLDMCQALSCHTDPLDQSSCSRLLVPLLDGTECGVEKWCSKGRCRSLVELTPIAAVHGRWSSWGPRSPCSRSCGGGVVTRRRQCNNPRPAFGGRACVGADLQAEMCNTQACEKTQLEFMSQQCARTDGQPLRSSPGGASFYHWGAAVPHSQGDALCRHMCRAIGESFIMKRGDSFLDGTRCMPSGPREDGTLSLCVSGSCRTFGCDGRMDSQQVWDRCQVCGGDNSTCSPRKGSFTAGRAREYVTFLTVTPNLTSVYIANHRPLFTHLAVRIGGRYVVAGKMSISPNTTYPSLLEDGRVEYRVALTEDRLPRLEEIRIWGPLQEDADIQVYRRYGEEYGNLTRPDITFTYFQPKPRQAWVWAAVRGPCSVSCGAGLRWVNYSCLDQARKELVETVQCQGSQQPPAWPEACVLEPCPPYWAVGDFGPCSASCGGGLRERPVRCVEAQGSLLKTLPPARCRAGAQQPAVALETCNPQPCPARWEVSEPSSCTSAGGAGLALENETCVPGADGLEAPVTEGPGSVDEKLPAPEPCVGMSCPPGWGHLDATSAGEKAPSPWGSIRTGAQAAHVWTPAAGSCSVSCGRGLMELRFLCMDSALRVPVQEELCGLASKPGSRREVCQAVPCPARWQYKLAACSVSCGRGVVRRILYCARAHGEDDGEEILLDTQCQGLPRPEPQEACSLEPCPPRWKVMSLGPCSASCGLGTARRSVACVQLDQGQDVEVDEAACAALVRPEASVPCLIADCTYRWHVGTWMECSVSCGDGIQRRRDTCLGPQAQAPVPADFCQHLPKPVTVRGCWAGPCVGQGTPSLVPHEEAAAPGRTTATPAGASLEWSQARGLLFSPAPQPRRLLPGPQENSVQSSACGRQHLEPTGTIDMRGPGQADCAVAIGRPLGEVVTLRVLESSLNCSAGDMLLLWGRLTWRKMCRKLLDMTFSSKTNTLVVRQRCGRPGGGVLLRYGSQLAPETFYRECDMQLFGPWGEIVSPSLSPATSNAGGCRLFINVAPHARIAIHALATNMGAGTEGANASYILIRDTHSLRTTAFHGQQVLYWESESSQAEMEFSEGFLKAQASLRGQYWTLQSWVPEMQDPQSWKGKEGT
Assay: Inhibition of human recombinant ADAMTS13 using FRETSVWF73 as substrate by fluorescence assay

Row | SMILES | IC50
3 | CCN(C(=O)c1ccc(CNc2nc(NCCN3CCN(C)CC3)nc(N3CCc4cc(OC)c(OC)cc4C3)n2)cc1)c1cccc(C)c1 | > 10000 nM

Molecular target: T3, A disintegrin and metalloproteinase with thrombospondin motifs 5 (Homo sapiens) (UniProt Q9UNA0)
T3 sequence (whole entry): T1 sequence (Q9UNA0 whole entry)
Assay: Inhibition of ADAMTS5 (unknown origin) using WAAG-3R as substrate at 10 uM preincubated for 15 mins followed by substrate addition measured every 30 secs for 1 hr relative to control

Row | SMILES | inhibition
4 | CCN(C(=O)c1ccc(CNc2nc(NCCN3CCN(C)CC3)nc(N3CCc4cc(OC)c(OC)cc4C3)n2)cc1)c1cccc(C)c1 | 30%

Molecular target: Collagenase 3 (Homo sapiens, UniProt P45452)
Assay: Inhibition of human recombinant MMP13 using 5-FAMTPGPLGL[Dap(DNP)]ARRK(5-TAMRA)-amide as substrate after 45 mins

Row | SMILES | IC50
5 | CCN(C(=O)c1ccc(CNc2nc(NCCN3CCN(C)CC3)nc(N3CCc4cc(OC)c(OC)cc4C3)n2)cc1)c1cccc(C)c1 | > 10000 nM

Molecular target: T4, A disintegrin and metalloproteinase with thrombospondin motifs 4 (Homo sapiens, UniProt O75173)
T4 sequence (O75173 whole entry): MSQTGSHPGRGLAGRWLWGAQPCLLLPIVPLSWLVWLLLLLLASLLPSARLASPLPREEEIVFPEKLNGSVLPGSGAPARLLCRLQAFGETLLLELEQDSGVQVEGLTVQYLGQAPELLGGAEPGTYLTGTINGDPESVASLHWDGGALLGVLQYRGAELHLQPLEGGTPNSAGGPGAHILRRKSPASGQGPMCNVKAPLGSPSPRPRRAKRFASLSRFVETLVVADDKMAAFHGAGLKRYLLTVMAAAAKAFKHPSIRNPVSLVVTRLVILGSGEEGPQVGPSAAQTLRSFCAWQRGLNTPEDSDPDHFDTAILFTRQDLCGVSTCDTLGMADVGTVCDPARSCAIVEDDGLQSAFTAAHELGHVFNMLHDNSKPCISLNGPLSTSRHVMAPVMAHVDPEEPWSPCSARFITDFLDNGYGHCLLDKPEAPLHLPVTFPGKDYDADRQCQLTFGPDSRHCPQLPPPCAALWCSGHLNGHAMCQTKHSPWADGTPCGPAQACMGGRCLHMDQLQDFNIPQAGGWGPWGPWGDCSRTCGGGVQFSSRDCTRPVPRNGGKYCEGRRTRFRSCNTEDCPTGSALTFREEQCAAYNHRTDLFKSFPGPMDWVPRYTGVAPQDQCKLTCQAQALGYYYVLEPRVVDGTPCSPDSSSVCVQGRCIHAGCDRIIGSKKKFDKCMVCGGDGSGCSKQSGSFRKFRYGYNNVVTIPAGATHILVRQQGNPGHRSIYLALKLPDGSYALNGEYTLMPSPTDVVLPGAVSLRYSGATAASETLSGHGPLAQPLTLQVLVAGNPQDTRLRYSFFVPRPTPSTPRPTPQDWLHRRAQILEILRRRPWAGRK
Assay: Inhibition of recombinant human ADAMTS4 (213 to 575 amino acid residues) using WAAG-3R as substrate preincubated for 15 mins followed by substrate addition measured every 30 secs for 1 hr

Row | SMILES | IC50
6 | CCN(C(=O)c1ccc(CNc2nc(Cl)nc(N3CCc4cc(OC)c(OC)cc4C3)n2)cc1)c1cccc(C)c1 | 102 nM
7 | CCN(C(=O)c1ccc(CNc2ncnc(N3CCc4cc(F)ccc4C3)n2)cc1)c1cccc(C)c1 | 370 nM
8 | CCN(C(=O)c1ccc(CNc2ncnc(NCc3ccc(OC)c(OC)c3)n2)cc1)c1cccc(C)c1 | 158 nM
9 | CCN(C)C(=O)c1ccc(CNc2nc(NCCN(C)C)nc(N3CCc4cc(OC)c(OC)cc4C3)n2)cc1 | 81 nM
10 | COc1cc2c(cc1OC)CN(c1nc(NCCN3CCN(C)CC3)nc(NCc3ccc(C(=O)Nc4cccc(C)c4)cc3)n1)CC2 | 518 nM
11 | CCN(C(=O)c1ccc(CNc2nc(NC)nc(N3CCc4cc(OC)c(OC)cc4C3)n2)cc1)c1cccc(C)c1 | 30 nM
12 | CCN(C)C(=O)c1ccc(CNc2nc(N3CCN(C)CC3)nc(N3CCc4ccccc4C3)n2)cc1 | 5500 nM
13 | CCN(C(=O)c1ccc(CNc2nc(NCc3ccccc3)nc(N3CCc4cc(OC)c(OC)cc4C3)n2)cc1)c1cccc(C)c1 | 60 nM
14 | CCN(C(=O)c1ccc(CNc2nc(NCCN(C)C)nc(N3CCc4ccccc4C3)n2)cc1)c1cccc(C)c1 | 8 nM
15 | COc1cc2c(cc1OC)CN(c1nc(NCCN3CCN(C)CC3)nc(NCc3ccc(C(=O)O)cc3)n1)CC2 | > 10000 nM
16 | CCN(C(=O)c1ccc(CNc2nc(NCCN3CCN(C)CC3)nc(N3CCc4cc(OC)c(OC)cc4C3)n2)cc1)c1cccc(C)c1 | 10 nM
17 | CCN(C(=O)c1ccc(CNc2nc(O)nc(N3CCc4cc(OC)c(OC)cc4C3)n2)cc1)c1cccc(C)c1 | 22 nM
18 | CCN(C(=O)c1ccc(CNc2nc(NCC(=O)O)nc(N3CCc4cc(OC)c(OC)cc4C3)n2)cc1)c1cccc(C)c1 | 88 nM
19 | CCN(C(=O)c1ccc(CNc2nc(Nc3ccccc3)nc(N3CCc4cc(OC)c(OC)cc4C3)n2)cc1)c1cccc(C)c1 | 181 nM
20 | CCN(C)C(=O)c1ccc(CNc2nc(N3CCN(C)CC3)nc(N3CCc4cc(OC)c(OC)cc4C3)n2)cc1 | 8500 nM
21 | COc1cc2c(cc1OC)CN(c1nc(NCCN3CCN(C)CC3)nc(NCc3ccccc3)n1)CC2 | 3000 nM
22 | CCN(C(=O)c1ccc(CNc2ncnc(N3CCc4ccc(F)cc4C3)n2)cc1)c1cccc(C)c1 | 333 nM

Row | SMILES | IC50
23 | CCN(C(=O)c1ccc(CNc2nc(NCCN3CCN(C)CC3)nc(N3CCCc4ccccc43)n2)cc1)c1cccc(C)c1 | 6500 nM
24 | CCN(C(=O)c1ccc(CNc2nc(NC(C)C)nc(N3CCc4cc(OC)c(OC)cc4C3)n2)cc1)c1cccc(C)c1 | 60 nM
25 | CCN(C)C(=O)c1ccc(CNc2nc(NCCN(C)C)nc(N3CCc4ccccc4C3)n2)cc1 | 43 nM
26 | CCN(C)C(=O)c1ccc(CNc2ncnc(N3CCc4ccccc4C3)n2)cc1 | 1700 nM
27 | CCN(C(=O)c1ccc(CNc2ncnc(N3CCc4cc(OC)c(OC)cc4C3)n2)cc1)c1cccc(C)c1 | 23 nM
28 | CCN(C)C(=O)c1ccc(CNc2ncnc(N3CCc4cc(OC)c(OC)cc4C3)n2)cc1 | 1820 nM
29 | CCN(C(=O)c1ccc(CNc2nc(NCCN(C)C)nc(N3CCc4cc(OC)c(OC)cc4C3)n2)cc1)c1cccc(C)c1 | 14 nM
30 | CCN(C(=O)c1ccc(CNc2nc(NCc3ccccc3)nc(N3CCc4ccccc4C3)n2)cc1)c1cccc(C)c1 | 61 nM
31 | CNC(=O)c1ccc(CNc2nc(NCCN3CCN(C)CC3)nc(N3CCc4cc(OC)c(OC)cc4C3)n2)cc1 | 3000 nM
32 | CCN(C)C(=O)c1ccc(CNc2nc(NCCN3CCN(C)CC3)nc(N3CCc4cc(OC)c(OC)cc4C3)n2)cc1 | 64 nM
33 | CCN(C(=O)c1ccc(CNc2ncnc(N3Cc4ccccc4C3)n2)cc1)c1cccc(C)c1 | 5600 nM
34 | CCN(C(=O)c1ccc(CNc2nc(NCCN3CCN(C)CC3)nc(N3CCc4ccccc4C3)n2)cc1)c1cccc(C)c1 | 6 nM
35 | CCN(C(=O)c1ccc(CNc2nc(NC3CCCCC3)nc(N3CCc4cc(OC)c(OC)cc4C3)n2)cc1)c1cccc(C)c1 | 284 nM
36 | CCN(C(=O)c1ccc(CNc2ncnc(N3CCCCC3)n2)cc1)c1cccc(C)c1 | > 10000 nM
37 | CCN(C(=O)c1ccc(CNc2nc(NCCc3ccco3)nc(N3CCc4cc(OC)c(OC)cc4C3)n2)cc1)c1cccc(C)c1 | 163 nM
38 | CCN(C(=O)c1ccc(CNc2ncnc(N3CCc4ccccc4C3)n2)cc1)c1cccc(C)c1 | 63 nM
